The source of these data is patent US8252768B2, “Designer therapy of pancreatic tumors” (University of Miami, priority 2006, dated 2012).

The term inhibition denotes the change of the read-out against control, counted positive when it falls.

The target of one data set is T1, cytidine deaminase (CD) (Homo sapiens, UniProt P32320).
T1 construct: Crude extracts of PC-3 cells in culture were prepared as described above; endogenous in cells; host or cells: PC-3 cells (crude extract supernatant)
The experiment in a line: Competition assay for substrates of cytidine deaminase, crude extracts of PC-3 cells. Type of data set: biochemical. To be noted: for substrate for cytidine deaminase (in words): competition studies, human tumor cell extracts. The procedure: The crude enzyme extract (the supernatant of a 10 minute 14,000×g centrifugation) was then added. When cytidine was used as substrate, assays were conducted with benzacyclouridine to inhibit uridine phosphorylases. […] After 0, 15, and 30 minutes, the reaction was stopped and denatured protein removed as above for dC Kinase. […] Aliquots were then spotted on PE cellulose TLC sheets and the reactants separated with a solvent system composed of isopropanol:HCl:H2O (170:41:39). […] The nucleosides were visualized under U.V. light and the spots cut out and counted. […] Enzyme activity was expressed as nmole formed in 30 min/mg/protein.
Competition assays to determine Substrate Specificity: Crude extracts of PC-3 cells in culture were prepared as described above. Two concentrations of crude extract were utilized for the studies as determined from the analysis of protein.
The assays were run for 0, 15, and 30 minutes.

For data set [1], the system named is PC-3 cells. The experiment in a line: Radiosensitization of cells in culture (Cobalt 60, clonogenic survival). In kind it is cell-based, human. To be noted: for effect of thymidine on radiosensitization (in words) / effect of tetrahydrouridine (H4U) on radiosensitization (in words): cells in culture. The procedure:
(§1) Toxicity and Radiation Studies: The methods using clonogenic assays described by Perez and Greer (Int. J. Rad. Oncology: Biology, Physics 12, 1523-1527, 1986—incorporated herein by reference in its entirety) were followed.
(§2) Irradiation of Cells in Culture: 2×10^5 cells were plated in 25 cm^2 flasks and grown for 18 hr at 37° C. in a humidified 5% CO2 atmosphere. The medium was then removed and replaced with medium containing the appropriate drug concentrations and incubated for 72 hrs then removed and the cell monolayers were rinsed twice with PBS. The flasks were then filled with 50 ml of radiation medium (3 parts RPMI 1640 and 7 parts PBS plus antibiotics and glutamine). The cells were then irradiated using a Cobalt 60 irradiator. The cell monolayers were placed 35 cm away from the source and irradiated for appropriate times according to the dose rate. The dose rate was calculated, at this distance, using ionization chambers. Attenuation factors due to the polystyrene flask (0.9923) and the medium (H2O=0.8715) were considered in calculating the exposure period.
(§3) After irradiation the cell monolayers were washed again, replenished with growth media, and incubated for 1½ hours. The cell monolayers were then trypsinized and the cells serially diluted, appropriate dilutions were then plated in 60 mm dishes and incubated for 7-9 days at 37° C. and CO2. At the end of this period the cells were stained with crystal violet and the colony forming ability determined by considering 25 or more normal cells as a viable colony. The viabilities were determined and the appropriate survival curves derived. All conditions were done in duplicate using two flasks treated under identical conditions.

The target in data set [2] is deoxycytidine kinase (dCK) (Homo sapiens, UniProt P27707). The experiment in a line: Competition assay for substrates of deoxycytidine kinase, crude extracts of PC-3 cells. The note with it: for substrate for deoxycytidine kinase (in words): competition studies, human tumor cell extracts; for inhibition at 250 µM: read-out: % Inhibition (dCK).
A further data set relates to uridine/cytidine kinase. The experiment in a line: Competition assay for substrates of uridine/cytidine kinase, crude extracts of T24 cells. In kind it is biochemical, human. The procedure: 2 mM dithiothreitol (DTT) and 0.5 mM phenylmethylsulfanyl fluoride were added just before extraction. The tissue sample was homogenized in a Dounce glass homogenizer and then sonicated for 3 five-second pulses in a Branson Sonifier with a micro-tip at 25 KHz to disrupt the cells. During homogenization and sonication the extract was kept cold throughout the procedures. The tissue extract was then centrifuged at 14,000×g at 4° C. for 15 min., and the supernatant (the crude enzyme extract) was removed. The supernatant was sheared 20 times on ice utilizing a 1 cc syringe with a 27 G½ needle to reduce viscosity. […] 2 mM DTT and 340 μM H4U were added just before the assay. Finally, to the reaction mixture, 5 μl 200 mM creatine phosphate and creatine phosphokinase (0.5 unit/μl) was added to 150 μl of the section mixture. […] H2O bath for 1 minute before 20 μl of the crude enzyme extract was added to initiate the reaction. […] At 0, 30 and 60 minutes the reaction mixture, divided in separate tubes, was heated in a boiling water bath for 2 minutes to terminate the reaction. Denatured protein was then removed by centrifugation of the sample for 2 minutes at 14,000×g. The amount of nucleotide formed was determined by spotting 20 μl aliquots of the reaction mixture onto DE-81 2.2 cm Whatman filter discs. After air drying, the unphosphorylated substrate nucleoside was removed by washing twice for 10 min. in 20 mM ammonium formate and twice for 5 min. in deionized H2O with gentle stirring. A control, lacking the crude enzyme extract was included with each determination. The washed papers were dried under a heat lamp and then placed into individual scintillation vials, eluted for 30 min. in 1 ml of 0.1M HCl-0.1M KCL and then vortexed in 5 ml of scintillation fluid and counted. Enzyme activity was expressed as pmoles/min/mg protein.
When uridine was utilized as substrate, benzacyclouridine was added to prevent the catabolism of the substrate by uridine phosphorylase and tetrahydrouridine was omitted.

The test system of the next data set is T24 cells. The data set can be described thus: Radiosensitization of cells in culture (Cobalt 60, clonogenic survival). Type of data set: cell-based, human. The procedure: as §1, §2, §3
The test system of data set [3] is PC-3 cells. The experiment in a line: Cytotoxicity (clonogenic) assay, 72 h drug exposure. In kind it is cell-based, human. The procedure: as §1
Cytotoxicity Assays: 5×10^5 cells were plated in 60 mm tissue culture dishes in 5 mls of the optimal growth media for the particular cell line in an humidified 95% air-5% CO2 atmosphere. The plates were incubated for 18-20 hours to allow for attachment and log-phase growth to begin. At the end of this period the growth medium was aspirated and replaced with […]. Four times (4×) concentrated solutions were prepared and then 1 ml was added to the plates; and growth media were then added to a total volume of […]. The plates were then incubated for 72 hours and the cells harvested by trypsinization. The cells were then serially diluted in growth medium replated into 60 mm dishes and incubated for 6 to 9 days depending on the cell line. After this incubation period, the media was aspirated and the colonies were washed twice with a PBS solution. The colonies were then stained with a 0.2% crystal violet-20% ethanol solution for 5 min. the stain was removed, the colonies were washed and air dried. A viable colony was one consisting of 25 or more normal appearing cells and was considered to have arisen from a single cell. The colonies were counted under a dissecting microscope. Two to three dilutions for every condition were plated. Dishes containing 30-300 colonies were used in the calculation and all conditions were done in duplicate.

Another data set has as its target T2, dCMP deaminase (Mus musculus, UniProt Q8K2D6).
T2 construct: deaminase activity of tumor, serum and other tissues assayed 30 min after H4U; from tissue; host or cells: tumor (Lewis lung carcinoma), serum and other tissues of BD2F1 mice
T2 sequence (Q8K2D6 1-178): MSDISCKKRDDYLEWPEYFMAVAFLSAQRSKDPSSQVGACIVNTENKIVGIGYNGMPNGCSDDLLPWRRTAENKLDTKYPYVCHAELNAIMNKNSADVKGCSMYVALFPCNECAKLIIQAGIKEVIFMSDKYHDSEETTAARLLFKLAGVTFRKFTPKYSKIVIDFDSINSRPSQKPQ
The experiment in a line: Inhibition of dCMP deaminase after H4U in mice bearing Lewis lung carcinoma. The note with it: 30 min. In kind it is in vivo, BD2F1 mice. The procedure:
dCMP Deaminase Activity: The crude enzyme extract was prepared as described in A. The reaction was carried out in 60 mM Tris HCl, pH 8.0, and 50 μm dCTP, 2.5 mM MgCl2, 30 mM NaF, and 80% H2O to which dCMP (^3H labeled) was added to a final concentration of 2 mM; 20 μl of enzyme extract was added to initiate the reaction giving a total volume of […]. […] A control lacking enzyme was included with each determination. The reaction was terminated as described above in at 0, 30 and 45 minutes and denatured protein was removed by centrifugation as described above. To 10 μl of the supernatant, 6 μl of a 0.03M solution of the carrier nucleotides, dCMP and dUMP were added so that the reactants can be visualized under a UV lamp. Chromatographic isolation of the products was carried out in 2 different solvent systems: A) Baker DEAE Cellulose TLC sheets in 0.01N HCl for 35 min. […] Each appropriate area of the thin layer sheets (where dCMP and dUMP were separated), were cut into small pieces and placed in separate vials and extracted with 1N HCl (1 ml) for 30 minutes. Scintillation cocktail was added (5 ml) to the vials which were vortexed prior to counting. The specific activity was expressed as nmoles/min/mg protein.

A further data set relates to Lewis lung carcinoma. The data set can be described thus: Mean day of death (T/C), Lewis lung carcinoma in mice. In kind it is in vivo, BD2F1 mice. The procedure:
; The efficacy of the drug, F3methyldC followed the pattern of Selectivity. The mean day of death (Tumor/Control) was 1.3, 1.6, 1.8 and 1.4 for 10, 25, 50 and 75 mg/kg H4U, respectively. […].

The structures appear in SMILES notation. Where two headings read alike, the source gives them in different places. Marks after values point to notes of the source that are not given here.

T1 sequence (P32320 whole entry): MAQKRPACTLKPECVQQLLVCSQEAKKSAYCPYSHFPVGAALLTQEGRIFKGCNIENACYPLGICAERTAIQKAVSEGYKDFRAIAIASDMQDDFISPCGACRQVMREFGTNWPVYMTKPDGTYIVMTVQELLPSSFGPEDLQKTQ
Chain of deoxycytidine kinase (dCK) (P27707 whole entry): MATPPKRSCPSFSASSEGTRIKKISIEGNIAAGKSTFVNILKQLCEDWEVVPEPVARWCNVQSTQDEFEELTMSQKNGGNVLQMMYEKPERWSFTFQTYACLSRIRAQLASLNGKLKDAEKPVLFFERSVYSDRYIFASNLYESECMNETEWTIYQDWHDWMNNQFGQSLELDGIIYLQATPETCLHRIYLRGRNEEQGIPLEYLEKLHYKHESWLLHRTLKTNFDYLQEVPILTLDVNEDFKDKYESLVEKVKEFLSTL

Turning to `Nc1nc(=O)n([C@H]2C[C@H](O)[C@@H](CO)O2)cc1Br` [5-BrdC, 5-Bromo-2′-deoxycytidine], the “substrate for cytidine deaminase (in words)” value on cytidine deaminase (CD) is listed as “good substrates”. For the same molecule, the inhibition on cytidine deaminase (CD) (substrate 3H-Cytidine 25 μM, ratio 10, PC-3 extracts) was 50%. For the same molecule, the “effect of thymidine on radiosensitization (in words)” value in the data set with PC-3 cells [1] is reported as “antagonized by thymidine”. In addition, in data set [2], the “substrate for deoxycytidine kinase (in words)” value is listed as “very poor substrates” and the inhibition at 250 µM worked out at 0%.

As for `O=c1[nH]c(=O)n([C@@H]2O[C@H](CO)[C@@H](O)[C@H]2O)cc1Cl` [5-Chlorouridine], the “substrate for U/C kinase of T24 cells (in words)” value in the data set on uridine/cytidine kinase is recorded as “moderate substrates”. In addition, the “% Inhibitation (U/C kinase)” value amounted to 8% with uridine/cytidine kinase (competitor 100 μM, substrate 3H-Cytidine 8.3 μM); 11% with uridine/cytidine kinase (competitor 100 μM, substrate 3H-Uridine 16.7 μM); 21% in the data set with uridine/cytidine kinase (competitor 250 μM, substrate 3H-Cytidine 8.3 μM); 22% in the data set on uridine/cytidine kinase (competitor 250 μM, substrate 3H-Uridine 16.7 μM); 32% in the data set with uridine/cytidine kinase (competitor 500 μM, substrate 3H-Cytidine 8.3 μM); 24% in the data set with uridine/cytidine kinase (competitor 500 μM, substrate 3H-Uridine 16.7 μM). Also, the “% Inhibitation (U/C kinase)” value in the data set on uridine/cytidine kinase (competitor 750 μM, substrate 3H-Cytidine 8.3 μM) amounted to 39%; with uridine/cytidine kinase (competitor 750 μM, substrate 3H-Uridine 16.7 μM), 32%. Also, in the data set on PC-3 cells [1] (PC-3 cells), the “radiosensitization of PC-3 cells (in words)” value was “effective radiosensitizer”. Further, the “radiosensitization of T24 cells (in words)” value in the data set on T24 cells is “effective radiosensitizer”; in the data set on T24 cells (listed as Chlorouridine), “compared very favorably with the other established Radiosensitizers”.

Consider `Nc1nc(=O)n([C@H]2C[C@H](O)[C@@H](CO)O2)cc1I` [5-IdC, 5-Iodo-2′-deoxycytidine], for which, at cytidine deaminase (CD), the “substrate for cytidine deaminase (in words)” value is recorded as “good substrates”. Further, the inhibition at 250 µM was 60% on cytidine deaminase (CD) (competitor 250 μM, substrate 3H-Deoxycytidine 25 μM, ratio 10, PC-3 extracts) and 0% in data set [2]. Moreover, the “effect of thymidine on radiosensitization (in words)” value in the data set with PC-3 cells [1] is given as “antagonized by thymidine”. Besides, the “effect of tetrahydrouridine (H4U) on radiosensitization (in words)” value is reported as “reversal by H4U” in the data set on PC-3 cells [1] (listed as 5-Iododeoxycytidine) and “greater radiosensitization than IdC alone” in the data set on PC-3 cells [1] (listed as IdC). Besides, the “substrate for deoxycytidine kinase (in words)” value in data set [2] is reported as “very poor substrates”. Further, the “effect of tetrahydrouridine (H4U) on cytotoxicity / viability (in words)” value in the data set with PC-3 cells [3] is on record as “antagonized by Tetrahydrouridine”; in the data set with PC-3 cells [3] (human, 72 h), “reversal by H4U”. For the same molecule, the “effect of thymidine on cytotoxicity (in words)” value in the data set on PC-3 cells [3] is listed as “antagonized by thymidine”. Further, the “% S” value with PC-3 cells [3] (nucleoside 5 μM, H4U 0 μM) amounted to 15%; in the data set on PC-3 cells [3] (nucleoside 5 μM, H4U 5 μM) it was 100%; in the data set with PC-3 cells [3] (nucleoside 5 μM, H4U 100 μM) it was 97%; in the data set on PC-3 cells [3] (nucleoside 5 μM, H4U 1500 μM) it was 100%; in the data set with PC-3 cells [3] (nucleoside 10 μM, H4U 5 μM), 53%; in the data set with PC-3 cells [3] (nucleoside 10 μM, H4U 100 μM), 73%. Also, the “% S” value in the data set on PC-3 cells [3] (nucleoside 10 μM, H4U 1500 μM) was found to be 89%; with PC-3 cells [3] (nucleoside 20 μM, H4U 5 μM) it was 30%; in the data set on PC-3 cells [3] (nucleoside 20 μM, H4U 100 μM), 65%; in the data set on PC-3 cells [3] (nucleoside 20 μM, H4U 1500 μM) it was 61%.

As to `O=C1NC(O)CCN1[C@@H]1O[C@H](CO)[C@@H](O)[C@H]1O` (stereo partly drawn) [Tetrahydrouridine], the “% Inhibitation (U/C kinase)” value in the data set with uridine/cytidine kinase (competitor 1500 μM, substrate 3H-Cytidine 8.3 μM) stood at 1.5%; in the data set on uridine/cytidine kinase (competitor 1500 μM, substrate 3H-Uridine 16.7 μM) it was 1.7%. Besides, the “% of inhibition of dCMP deaminase of tumor” value on dCMP deaminase (H4U 10 mg/kg, footnote: less than 5% enzyme inhibition) was 0^d %; on dCMP deaminase (H4U 25 mg/kg), 0%; on dCMP deaminase (H4U 50 mg/kg) it was 0%; at dCMP deaminase (H4U 75 mg/kg), 0%. Also, the “MDD T/C (mean day of death)” value with Lewis lung carcinoma (H4U 10 mg/kg with F3methyldC) is reported as 1.25; in the data set with Lewis lung carcinoma (H4U 25 mg/kg with F3methyldC, mean ± SE) it was 1.63 ± 0.07^e; in the data set on Lewis lung carcinoma (H4U 50 mg/kg with F3methyldC, mean ± SE), 1.78 ± 0.06; in the data set with Lewis lung carcinoma (H4U 75 mg/kg with F3methyldC), 1.44. In the data set with PC-3 cells [3] (no nucleoside, H4U 100 μM alone), the “% S” value came out at 100%.
